The test system of assay [1] is PC9 cells (EGFR Exon 19 del, non-small cell lung cancer cells). The experiment in a line: Cell viability assay (WST/CCK8), PC9 cells. Type of assay: cell-based. Particulars: Homo sapiens, PC-9; PC9 (Exon19 Del), 72 hours, WST (CCK8); read-out: IC50 (half inhibitory concentration). Put shortly:
(§1)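 Cells seeded at 3 000/well in RPMI1640 complete medium, dosed next day with compounds (top 10 μM, 3-fold, 10 points) for 72 h. Viability read with WST (CCK8) reagent; DMSO as negative control, EGFR TKIs as positive controls; IC50 determined.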

Assay [2] has as its system HCC827 cells (EGFR Exon19 del, non-small cell lung cancer cells). Kind of assay: Cell viability assay (WST/CCK8), HCC827 cells. The class given is cell-based. Particulars: Homo sapiens, HCC827, 72 h, HCC827 (Exon19 Del), 72 hours, WST (CCK8); read-out: IC50 (half inhibitory concentration). Put shortly: as §1

Take `COc1cc2ncnc(Nc3ccc(F)c(Cl)c3)c2cc1NC(=O)/C=C/CN1CCC(N2CCN(C(=O)CCN3CCN(CCC(=O)N[C@H](C(=O)N4C[C@H](O)C[C@H]4C(=O)NCc4ccc(-c5scnc5C)cc4)C(C)(C)C)CC3)CC2)CC1` [SIAIS249105, (2S,4R)-1-((S)-2-(3-(4-(3-(4-(1-((E)-4-((4-((3-chloro-4-fluorophenyl)amino)-7-methoxyquinazolin-6-yl)amino)-4-oxobut-2-en-1-yl)piperidin-4-yl)piperazin-1-yl)-3-oxopropyl)piperazin-1-yl)propanamido)-3,3-dimethylbutanoyl)-4-hydroxy-N-(4-(4-methylthiazol-5-yl)benzyl)pyrrolidine-2-carboxamide]: the IC50 in assay [1] turned out to be 0.0605 µM; in assay [2] it was 0.0543 µM.
The matching figures for `COc1cc2ncnc(Nc3ccc(F)c(Cl)c3)c2cc1NC(=O)/C=C/CN1CCC(N2CCN(C(=O)CCc3ccc(CCC(=O)N[C@H](C(=O)N4C[C@H](O)C[C@H]4C(=O)NCc4ccc(-c5scnc5C)cc4)C(C)(C)C)cc3)CC2)CC1` [SIAIS249106, (2S,4R)-1-((S)-2-(3-(4-(3-(4-(1-((E)-4-((4-((3-chloro-4-fluorophenyl)amino)-7-methoxyquinazolin-6-yl)amino)-4-oxobut-2-en-1-yl)piperidin-4-yl)piperazin-1-yl)-3-oxopropyl)phenyl)propanamido)-3,3-dimethylbutanoyl)-4-hydroxy-N-(4-(4-methylthiazol-5-yl)benzyl)pyrrolidine-2-carboxamide]: 0.0501 µM and 0.0162 µM.
For `COc1cc2ncnc(Nc3ccc(F)c(Cl)c3)c2cc1NC(=O)/C=C/CN1CCN(C(=O)COCCOCCSc2cccc3c2CN(C2CCC(=O)NC2=O)C3=O)CC1` (stereo not drawn) [SIAIS262001, (E)-N-(4-((3-chloro-4-fluorophenyl)amino)-7-methoxyquinazolin-6-yl)-4-(4-(2-(2-(2-((2-(2,6-dioxopiperidin-3-yl)-1-oxoisoindolin-4-yl)thio)ethoxy)ethoxy)acetyl)piperazin-1-yl)but-2-enamide] the same measures were 0.053 µM and 0.0269 µM.
The matching figures for `COc1cc2ncnc(Nc3ccc(F)c(Cl)c3)c2cc1NC(=O)/C=C/CN1CCN(C(=O)COCCOCCOCCSc2cccc3c2CN(C2CCC(=O)NC2=O)C3=O)CC1` (stereo not drawn) [SIAIS262002, (E)-N-(4-((3-chloro-4-fluorophenyl)amino)-7-methoxyquinazolin-6-yl)-4-(4-(2-(2-(2-(2-((2-(2,6-dioxopiperidin-3-yl)-1-oxoisoindolin-4-yl)thio)ethoxy)ethoxy)ethoxy)acetyl)piperazin-1-yl)but-2-enamide]: 0.078 µM and 0.0261 µM.
`COc1cc2ncnc(Nc3ccc(F)c(Cl)c3)c2cc1NC(=O)/C=C/CN1CCN(C(=O)COCCOCCOCCOCCOCCSc2cccc3c2CN(C2CCC(=O)NC2=O)C3=O)CC1` (stereo not drawn) [SIAIS262004, (E)-N-(4-((3-chloro-4-fluorophenyl)amino)-7-methoxyquinazolin-6-yl)-4-(4-(17-((2-(2,6-dioxopiperidin-3-yl)-1-oxoisoindolin-4-yl)thio)-3,6,9,12,15-pentaoxaheptadecan-1-oyl)piperazin-1-yl)but-2-enamide]: the IC50 in assay [1] turned out to be 0.015 µM; in assay [2], 0.0072 µM.
For `COc1cc2ncnc(Nc3ccc(F)c(Cl)c3)c2cc1NC(=O)/C=C/CN1CCN(C(=O)COCCOCCSc2cccc3c2C(=O)N(C2CCC(=O)NC2=O)C3=O)CC1` (stereo not drawn) [SIAIS262005, (E)-N-(4-((3-chloro-4-fluorophenyl)amino)-7-methoxyquinazolin-6-yl)-4-(4-(2-(2-(2-((2-(2,6-dioxopiperidin-3-yl)-1,3-dioxoisoindolin-4-yl)thio)ethoxy)ethoxy)acetyl)piperazin-1-yl)but-2-enamide] the same measures were 0.084 µM and 0.0669 µM.
